In patent US20110319416A1, “Subunit Selective NMDA Receptor Antagonists For The Treatment Of Neurological Conditions” (EMORY UNIVERSITY, priority 2009, published 2011):
Read-outs that look alike come from different tables or passages of the source. Marks after values point to notes of the source that are not given here. One block for each compound: values may come before it.

Columns and labels:
NR2A [1] = biological target: T1, NR2A (Homo sapiens, UniProt Q05586+Q12879); details: Ki estimated from equilibrium binding displacement IC50 at a single concentration; low affinity site; read-out: 2A (μM) Ki*; cited from earlier work
T1 sequence (Q12879 23-1464, other chains not shown): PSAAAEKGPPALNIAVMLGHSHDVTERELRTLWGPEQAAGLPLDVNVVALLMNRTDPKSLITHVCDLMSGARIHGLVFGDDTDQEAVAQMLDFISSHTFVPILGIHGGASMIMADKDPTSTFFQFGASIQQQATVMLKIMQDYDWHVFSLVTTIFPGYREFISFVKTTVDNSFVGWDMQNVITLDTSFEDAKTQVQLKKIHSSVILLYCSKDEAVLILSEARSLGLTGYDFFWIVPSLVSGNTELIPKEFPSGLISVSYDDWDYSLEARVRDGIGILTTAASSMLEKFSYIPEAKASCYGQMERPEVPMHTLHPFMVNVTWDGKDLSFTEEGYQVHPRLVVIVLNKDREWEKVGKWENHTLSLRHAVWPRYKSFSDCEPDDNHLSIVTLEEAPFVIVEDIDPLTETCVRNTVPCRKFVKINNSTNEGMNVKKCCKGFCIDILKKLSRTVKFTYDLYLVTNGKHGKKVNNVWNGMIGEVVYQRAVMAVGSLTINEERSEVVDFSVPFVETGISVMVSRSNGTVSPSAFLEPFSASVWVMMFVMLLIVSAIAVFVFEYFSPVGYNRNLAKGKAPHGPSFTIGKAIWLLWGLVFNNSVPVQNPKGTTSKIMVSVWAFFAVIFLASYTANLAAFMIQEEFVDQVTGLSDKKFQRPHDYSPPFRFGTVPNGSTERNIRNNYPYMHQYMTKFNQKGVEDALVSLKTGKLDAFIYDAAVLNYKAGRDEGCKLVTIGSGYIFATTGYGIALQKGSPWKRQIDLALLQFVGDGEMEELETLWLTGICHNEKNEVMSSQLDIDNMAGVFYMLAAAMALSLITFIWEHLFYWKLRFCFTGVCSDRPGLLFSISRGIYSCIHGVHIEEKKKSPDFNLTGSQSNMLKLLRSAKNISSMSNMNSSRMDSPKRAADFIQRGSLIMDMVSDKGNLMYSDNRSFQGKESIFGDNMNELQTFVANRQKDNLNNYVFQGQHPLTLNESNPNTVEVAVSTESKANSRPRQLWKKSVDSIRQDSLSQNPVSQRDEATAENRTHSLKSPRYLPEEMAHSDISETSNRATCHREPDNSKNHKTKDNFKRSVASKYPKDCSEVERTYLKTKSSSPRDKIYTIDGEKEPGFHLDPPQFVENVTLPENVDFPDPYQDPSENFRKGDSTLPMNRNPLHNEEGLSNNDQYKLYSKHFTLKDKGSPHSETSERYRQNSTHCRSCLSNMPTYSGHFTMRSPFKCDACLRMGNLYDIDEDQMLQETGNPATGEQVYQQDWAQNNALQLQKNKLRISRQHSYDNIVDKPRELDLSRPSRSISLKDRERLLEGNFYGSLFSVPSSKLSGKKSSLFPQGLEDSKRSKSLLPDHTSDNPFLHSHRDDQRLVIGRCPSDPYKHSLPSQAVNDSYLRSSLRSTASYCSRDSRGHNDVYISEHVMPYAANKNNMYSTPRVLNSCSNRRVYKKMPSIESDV

NR2B [2] = biological target: T2, NR2B (Homo sapiens, UniProt Q05586+Q13224); details: Ki estimated from equilibrium binding displacement IC50 at a single concentration; low affinity site; read-out: 2B (μM) Ki*; cited from earlier work
NR2C [3] = biological target: T3, NR2C (Homo sapiens, UniProt Q05586+Q14957); details: Ki estimated from equilibrium binding displacement IC50 at a single concentration; low affinity site; read-out: 2C (μM) Ki*; cited from earlier work
NR2D [4] = biological target: T4, NR2D (Homo sapiens, UniProt O15399+Q05586); details: Ki estimated from equilibrium binding displacement IC50 at a single concentration; low affinity site; read-out: 2D (μM) Ki*; cited from earlier work
NR2B [5] = biological target: T2, NR2B; assay: Literature equilibrium binding displacement, NR2B (Table 1)
NR2D [6] = biological target: T4, NR2D; assay: Literature equilibrium binding displacement, NR2D (Table 1)
NR1/NR2A [7] = biological target: NR1/NR2A (Rattus norvegicus, UniProt P35439+Q00959); assay: Two electrode voltage clamp, Xenopus oocytes expressing recombinant NR1/NR2A; assay type: cell-based; details: logistic fit, minimum forced to 0; read-out: 2A IC50
Method: (§1) Quality of synthesized cRNA was assessed by gel electrophoresis, and quantity was estimated by spectroscopy and gel electrophoresis. Stage V and VI oocytes were surgically removed from the ovaries of large, well-fed and healthy Xenopus laevis anesthetized with 3-amino-benzoic acid ethyl ester (3 gm/l) as previously described. Clusters of isolated oocytes were incubated with 292 U/ml Worthington (Freehold, N.J.) type IV collagenase or 1.3 mg/ml collagenase (Life Technologies, Gaithersburg, MD; 17018-029) for 2 hr in Ca^2+-free solution comprised of (in mM) 115 NaCl, 2.5 KCl, and 10 HEPES, pH 7.5, with slow agitation to remove the follicular cell layer. Oocytes were then washed extensively in the same solution supplemented with 1.8 mM CaCl2 and maintained in Barth's solution comprised of (in mM): 88 NaCl, 1 KCl, 2.4 NaHCO3, 10 HEPES, 0.82 MgSO4, 0.33 Ca(NO3)2, and 0.91 CaCl2 and supplemented with 100 μg/m1 gentamycin, 10 μg/ml streptomycin, and 10 μg/ml penicillin. Oocytes were manually defolliculated and injected within 24 hrs of isolation with 3-5 ng of NR1 subunit cRNA and 7-10 ng of NR2 cRNA subunit in a 50 nl volume, or 5-10 ng of AMPA or kainate receptor cRNAs in a 50 nl volume, and incubated in Barth's solution at 18° C. for 1-7 d. Glass injection pipettes had tip sizes ranging from 10-20 microns, and were backfilled with mineral oil.
(§2) Two electrode voltage-clamp recordings were made 2-7 days post-injection as previously described. Oocytes were placed in a dual-track plexi-glass recording chamber with a single perfusion line that splits in a Y-configuration to perfuse two oocytes. Dual recordings were made at room temperature (23° C.) using two Warner OC725B two-electrode voltage clamp amplifiers, arranged as recommended by the manufacturer. Glass microelectrodes (1-10 Megaohms) were filled with 300 mM KCl (voltage electrode) or 3 M KCl (current electrode). The bath clamps communicated across silver chloride wires placed into each side of the recording chamber, both of which were assumed to be at a reference potential of 0 mV. Oocytes were perfused with a solution comprised of (in mM) 90 NaCl, 1 KCl, 10 HEPES, and 0.5 BaCl2; pH was adjusted by addition of 1-3 M NaOH of HC1 to 7.4. Oocytes were recorded under voltage clamp at −40 mV. […] In some experiments, 10 μM EDTA was obtained by adding a 1:1000 dilution of 10 mM EDTA, in order to chelate contaminant divalent ions such as Zn^2+. […] Concentration effect curves consisting of 4 to 8 concentrations were obtained in this manner. The baseline leak current at −40 mV was measured before and after recording, and the full recording linearly corrected for any change in leak current. […] Each experiment consisted of recordings from 3 to 10 oocytes obtained from a single frog. Results from multiple experiments were pooled, and the average percent responses at antagonist concentrations were fitted by the equation,
(§3) Percent Response=(100−minimum)/(1+([conc]/IC50)nH)+minimum

NR1/NR2A [8] = biological target: NR1/NR2A (Rattus norvegicus, UniProt Q00959); assay: as above; assay type: cell-based; details: for 2A percent response at the maximum tested concentration: at 100 μM
Method: as §1, §2, §3

NR1/NR2B [9] = biological target: NR1/NR2B (Rattus norvegicus, UniProt P35439+Q00960); assay: Two electrode voltage clamp, Xenopus oocytes expressing recombinant NR1/NR2B; assay type: cell-based; details: logistic fit, minimum forced to 0; read-out: 2B IC50
NR1/NR2B (Rattus norvegicus, UniProt P35439+Q00960), sequence (Q00960 27-1482, other chains not shown): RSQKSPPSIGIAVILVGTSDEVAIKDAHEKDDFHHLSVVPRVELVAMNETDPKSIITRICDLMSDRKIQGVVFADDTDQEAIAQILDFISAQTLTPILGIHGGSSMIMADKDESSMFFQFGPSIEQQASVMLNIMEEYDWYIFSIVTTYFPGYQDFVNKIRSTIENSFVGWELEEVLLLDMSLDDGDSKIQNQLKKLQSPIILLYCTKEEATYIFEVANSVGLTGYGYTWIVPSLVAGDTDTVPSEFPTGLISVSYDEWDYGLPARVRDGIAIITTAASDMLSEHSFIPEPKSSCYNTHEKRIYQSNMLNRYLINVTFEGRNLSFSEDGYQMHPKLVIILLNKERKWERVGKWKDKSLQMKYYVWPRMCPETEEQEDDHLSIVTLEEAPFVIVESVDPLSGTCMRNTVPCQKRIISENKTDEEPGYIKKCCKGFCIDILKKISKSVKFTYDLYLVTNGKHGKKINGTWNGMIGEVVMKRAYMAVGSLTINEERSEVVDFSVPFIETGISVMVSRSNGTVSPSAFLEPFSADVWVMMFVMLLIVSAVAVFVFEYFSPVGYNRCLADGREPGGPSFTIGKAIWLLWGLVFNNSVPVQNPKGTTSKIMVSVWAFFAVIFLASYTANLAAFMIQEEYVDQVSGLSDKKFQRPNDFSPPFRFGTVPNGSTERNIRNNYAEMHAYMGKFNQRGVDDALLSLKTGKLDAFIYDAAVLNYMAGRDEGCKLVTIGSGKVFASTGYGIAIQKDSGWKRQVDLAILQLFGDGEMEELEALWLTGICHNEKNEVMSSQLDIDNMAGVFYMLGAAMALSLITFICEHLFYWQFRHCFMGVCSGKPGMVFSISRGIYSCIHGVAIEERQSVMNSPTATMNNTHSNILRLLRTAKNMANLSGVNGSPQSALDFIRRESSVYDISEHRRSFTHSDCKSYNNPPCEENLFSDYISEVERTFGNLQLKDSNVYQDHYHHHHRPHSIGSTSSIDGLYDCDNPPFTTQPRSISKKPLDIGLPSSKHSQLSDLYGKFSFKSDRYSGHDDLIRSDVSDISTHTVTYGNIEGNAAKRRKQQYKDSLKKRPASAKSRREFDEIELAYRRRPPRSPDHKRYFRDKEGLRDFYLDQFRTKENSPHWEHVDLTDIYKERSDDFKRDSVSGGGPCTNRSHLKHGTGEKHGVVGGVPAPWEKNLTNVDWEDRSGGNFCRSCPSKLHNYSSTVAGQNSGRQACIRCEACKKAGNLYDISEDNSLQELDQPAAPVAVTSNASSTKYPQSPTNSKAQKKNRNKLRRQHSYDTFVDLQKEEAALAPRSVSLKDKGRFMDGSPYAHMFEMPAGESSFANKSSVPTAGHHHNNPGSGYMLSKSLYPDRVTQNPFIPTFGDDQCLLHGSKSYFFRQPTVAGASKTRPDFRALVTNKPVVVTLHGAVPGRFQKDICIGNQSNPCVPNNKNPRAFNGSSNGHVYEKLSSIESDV
Method: as §1, §2, §3

NR1/NR2B [10] = biological target: NR1/NR2B (Rattus norvegicus, UniProt Q00960); assay: as above; assay type: cell-based
Method: as §1, §2, §3

NR1/NR2C [11] = biological target: NR1/NR2C (Rattus norvegicus, UniProt P35439+Q00961); assay: Two electrode voltage clamp, Xenopus oocytes expressing recombinant NR1/NR2C; assay type: cell-based; details: logistic fit, minimum forced to 0; read-out: 2C IC50
NR1/NR2C (Rattus norvegicus, UniProt P35439+Q00961), sequence (Q00961 20-1237, other chains not shown): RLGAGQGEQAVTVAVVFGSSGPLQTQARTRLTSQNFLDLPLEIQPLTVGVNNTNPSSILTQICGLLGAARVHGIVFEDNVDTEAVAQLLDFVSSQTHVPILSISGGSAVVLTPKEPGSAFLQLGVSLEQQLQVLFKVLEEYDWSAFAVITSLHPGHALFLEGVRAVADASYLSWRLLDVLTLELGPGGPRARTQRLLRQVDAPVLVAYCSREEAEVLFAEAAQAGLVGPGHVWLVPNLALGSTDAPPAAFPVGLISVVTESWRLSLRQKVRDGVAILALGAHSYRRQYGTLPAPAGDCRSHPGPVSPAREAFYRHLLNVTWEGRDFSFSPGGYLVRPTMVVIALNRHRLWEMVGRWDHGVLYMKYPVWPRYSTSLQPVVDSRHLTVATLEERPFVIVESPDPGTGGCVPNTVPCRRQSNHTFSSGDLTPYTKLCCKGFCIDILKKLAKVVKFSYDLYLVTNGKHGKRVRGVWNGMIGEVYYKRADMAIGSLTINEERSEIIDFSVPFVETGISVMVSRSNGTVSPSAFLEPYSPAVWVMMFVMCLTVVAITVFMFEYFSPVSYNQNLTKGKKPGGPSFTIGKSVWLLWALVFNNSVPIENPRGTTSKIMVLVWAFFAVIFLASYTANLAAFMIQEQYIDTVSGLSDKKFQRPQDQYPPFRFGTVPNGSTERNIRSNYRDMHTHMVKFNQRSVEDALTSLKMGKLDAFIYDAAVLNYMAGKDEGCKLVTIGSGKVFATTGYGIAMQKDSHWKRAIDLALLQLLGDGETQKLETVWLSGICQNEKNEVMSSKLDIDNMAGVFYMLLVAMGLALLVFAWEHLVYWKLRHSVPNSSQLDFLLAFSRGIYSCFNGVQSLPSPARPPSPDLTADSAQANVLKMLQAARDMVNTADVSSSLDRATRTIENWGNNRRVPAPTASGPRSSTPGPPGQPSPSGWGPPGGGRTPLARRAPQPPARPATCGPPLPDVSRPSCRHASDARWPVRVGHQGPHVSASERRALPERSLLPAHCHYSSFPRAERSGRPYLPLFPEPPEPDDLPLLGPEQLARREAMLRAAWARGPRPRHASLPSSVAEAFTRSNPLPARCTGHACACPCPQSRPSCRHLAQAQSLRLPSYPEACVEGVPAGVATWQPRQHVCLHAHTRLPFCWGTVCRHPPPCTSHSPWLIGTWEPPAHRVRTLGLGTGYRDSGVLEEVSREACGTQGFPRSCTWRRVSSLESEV
Method: as §1, §2, §3

NR1/NR2C [12] = biological target: NR1/NR2C (Rattus norvegicus, UniProt Q00961); assay: as above; assay type: cell-based
NR1/NR2C (Rattus norvegicus, UniProt Q00961), sequence (Q00961 20-1237, other chains not shown): as above
Method: as §1, §2, §3

NR1/NR2D [13] = biological target: NR1/NR2D (Rattus norvegicus, UniProt P35439+Q62645); assay: Two electrode voltage clamp, Xenopus oocytes expressing recombinant NR1/NR2D; assay type: cell-based; details: logistic fit, minimum forced to 0; read-out: 2D IC50
Method: as §1, §2, §3

NR1/NR2D [14] = biological target: NR1/NR2D (Rattus norvegicus, UniProt Q62645); assay: as above; assay type: cell-based
Method: as §1, §2, §3

GluR1 = GluR1 (Rattus norvegicus, UniProt P19490); assay: Two electrode voltage clamp, Xenopus oocytes expressing GluR1; assay type: cell-based
GluR1, sequence (P19490 19-907): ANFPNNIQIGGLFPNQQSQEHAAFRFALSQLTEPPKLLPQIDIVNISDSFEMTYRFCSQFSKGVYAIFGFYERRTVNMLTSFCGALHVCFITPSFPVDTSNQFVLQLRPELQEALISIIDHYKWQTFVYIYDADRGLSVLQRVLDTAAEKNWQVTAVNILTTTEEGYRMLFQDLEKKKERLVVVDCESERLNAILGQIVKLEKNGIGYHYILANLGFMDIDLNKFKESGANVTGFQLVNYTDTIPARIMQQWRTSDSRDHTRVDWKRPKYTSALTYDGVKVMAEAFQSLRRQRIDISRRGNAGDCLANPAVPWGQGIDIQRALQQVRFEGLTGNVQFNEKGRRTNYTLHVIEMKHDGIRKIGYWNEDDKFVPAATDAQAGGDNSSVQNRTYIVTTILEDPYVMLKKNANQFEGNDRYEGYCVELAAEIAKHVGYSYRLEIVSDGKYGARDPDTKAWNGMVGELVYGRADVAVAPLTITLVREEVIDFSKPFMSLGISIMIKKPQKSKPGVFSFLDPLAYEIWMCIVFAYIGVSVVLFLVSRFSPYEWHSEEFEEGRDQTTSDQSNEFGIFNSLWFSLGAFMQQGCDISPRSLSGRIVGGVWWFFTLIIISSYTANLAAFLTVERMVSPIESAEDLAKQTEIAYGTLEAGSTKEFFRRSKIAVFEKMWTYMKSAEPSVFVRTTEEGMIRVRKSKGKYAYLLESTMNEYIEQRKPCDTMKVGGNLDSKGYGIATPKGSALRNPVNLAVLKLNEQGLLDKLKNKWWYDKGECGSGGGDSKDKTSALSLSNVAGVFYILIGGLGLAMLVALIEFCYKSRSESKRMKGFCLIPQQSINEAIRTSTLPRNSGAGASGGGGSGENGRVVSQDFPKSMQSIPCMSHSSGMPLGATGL
Method: as §1, §2, §3

[15] = biological target: homomeric GluR6 kainate receptor (Rattus norvegicus, UniProt P42260); assay: Two electrode voltage clamp, Xenopus oocytes expressing homomeric GluR6; assay type: cell-based; details: in words
Method: Real time Ca^2+ signals were recorded in 96 well plates using FlexStation II multi-mode plate readers. […] Test compounds were added to each well together with agonist to yield a final well concentration of 10 μM test compound in 0.9% DMSO. Compounds that altered the response of any well compared to on-plate control wells beyond 2.5-fold of the standard deviation (calculated from all wells on the plate) or by more than 40% of the control response on a given plate were selected for secondary screening using two-electrode voltage-clamp recordings from Xenopus oocytes expressing recombinant NR1/NR2D receptors. To complete the secondary screen, we obtained selected compounds in powder form. […] We subsequently initiated novel synthesis on this class of compound.
Quality of synthesized cRNA was assessed by gel electrophoresis, and quantity was estimated by spectroscopy and gel electrophoresis. Stage V and VI oocytes were surgically removed from the ovaries of large, well-fed and healthy Xenopus laevis anesthetized with 3-amino-benzoic acid ethyl ester (3 gm/l) as previously described. […]
Two electrode voltage-clamp recordings were made 2-7 days post-injection as previously described. […] Oocytes were recorded under voltage clamp at −40 mV. […] The baseline leak current at −40 mV was measured before and after recording, and the full recording linearly corrected for any change in leak current. […]

NR2D [16] = biological target: T4, NR2D; assay: Literature functional antagonist potency at NR2D (Table 1); assay type: cell-based
NR2A [17] = biological target: T1, NR2A; details: cited from earlier work; for Kb: Kb determined by Schild analysis, read-out: 2A (μM) Kb
NR2B [18] = biological target: T2, NR2B; details: cited from earlier work; for Kb: Kb determined by Schild analysis, read-out: 2B (μM) Kb
NR2C [19] = biological target: T3, NR2C; details: cited from earlier work
NR2D [20] = biological target: T4, NR2D; details: cited from earlier work
NR2B [21] = biological target: T2, NR2B; assay: Literature functional antagonist potency at NR2B (Table 1)
NR2B [22] = biological target: T2, NR2B
[23] = not surmounted by agonists at 500-fold of EC50

SMILES: O=C(/C=C/c1c(C(=O)[O-])[nH]c2cc(Cl)cc(Cl)c12)Nc1ccccc1.[Na+] [GV150, 526A]
potency estimated from few doses (NR2A [1]): 0.08 µM
potency estimated from few doses (NR2B [2]): 0.08 µM
potency estimated from few doses (NR2C [3]): 0.11 µM
potency estimated from few doses (NR2D [4]): 0.05 µM
2A/2B (ratio of Ki*) (NR2B [5]): 1.0*
2A/2D (ratio of Ki*) (NR2D [6]): 1.6*

IC50 (NR1/NR2A [7]): 1370 µM
effect on NR2A-containing receptors (NR1/NR2A [8]; in words): little effect
IC50 (NR1/NR2B [9]): 1230 µM
effect on NR2B-containing receptors (NR1/NR2B [10]; in words): little effect
IC50 (NR1/NR2C [11]): 2 µM
IC50 (half maximally inhibiting concentration), NR1/NR2C (NR1/NR2C [12]; in words): low micromolar
maximum inhibition of NR1/NR2C receptor function (NR1/NR2C [12]; voltage clamp): 85%
IC50 (NR1/NR2D [13]): 1 µM
selectivity for NR1/NR2D compared to NR1/NR2A (NR1/NR2D [14]; fitted IC50 values): > 500 fold
IC50 (half maximally inhibiting concentration), NR1/NR2D (NR1/NR2D [14]; in words): low micromolar
maximum inhibition of NR1/NR2D receptor function (NR1/NR2D [14]; voltage clamp): 85%
remaining activity at 100 µM (GluR1; at 100 μM, read-out: GluR1 percent effect at the maximum tested concentration): 105%
effect on recombinant AMPA receptors (GluR1; in words): little effect
effect on recombinant kainate receptors [15]: little effect
SMILES: CCN(CC)C(=S)Oc1ccc(C(=O)Nc2cccc3ccccc23)cc1 [compound 1063]
mode of block of NR1/NR2C receptors (NR1/NR2C [12]; [23]): non-competitive and voltage-independent blocker
mode of block of NR1/NR2D receptors (NR1/NR2D [14]; [23]): non-competitive and voltage-independent blocker

2A percent response at the maximum tested concentration (NR1/NR2A [8]): 87% at 100 μM
IC50 (NR1/NR2B [9]): 90 µM
IC50 (NR1/NR2C [11]): 33 µM
IC50 (NR1/NR2D [13]): 22 µM
SMILES: O=C(O)CCC(=O)N1N=C(c2c(-c3ccccc3)c3cc(Br)ccc3[nH]c2=O)CC1c1ccc(F)cc1 (centres unmarked) [compound 1184]

SMILES: O=c1[nH]c2cc(Cl)c(Cl)c([N+](=O)[O-])c2[nH]c1=O [ACEA-1021]
2A/2D (ratio of Kb) (NR2D [16]; Kb ratio): 0.4
Kb (NR2A [17]): 0.004 µM
Kb (NR2B [18]): 0.004 µM
Kb (NR2C [19]; Kb determined by Schild analysis, read-out: 2C (μM) Kb): 0.003 µM
Kb (NR2D [20]; Kb determined by Schild analysis, read-out: 2D (μM) Kb): 0.011 µM
2A/2B (ratio of Kb) (NR2B [21]; Kb ratio): 1.0

2A percent response at the maximum tested concentration (NR1/NR2A [8]): 85% at 100 μM
IC50 (NR1/NR2B [9]): 209 µM
IC50 (NR1/NR2C [11]): 33 µM
IC50 (NR1/NR2D [13]): 27 µM
SMILES: Cc1nc2ccc(Br)cc2c(-c2ccccc2)c1C1=NN(C(=O)CCC(=O)O)C(c2ccc(Br)cc2)C1 (centres unmarked) [compound 1210]

SMILES: O=C(O)[C@H]1NCCN(C(=O)c2ccc3ccc4ccccc4c3c2)[C@H]1C(=O)O [UBP141]
2A/2D (ratio of Ki**) (NR2D [16]; functional Ki ratio): 5.1**
potency estimated from few doses (NR2A [17]; Ki estimated from functionally determined IC50 at a single agonist concentration, read-out: 2A (μM) Ki**): 14.2 µM
potency estimated from few doses (NR2B [18]; Ki estimated from functionally determined IC50 at a single agonist concentration, read-out: 2B (μM) Ki**): 19.3 µM
potency estimated from few doses (NR2C [19]; Ki estimated from functionally determined IC50 at a single agonist concentration, read-out: 2C (μM) Ki**): 4.2 µM
potency estimated from few doses (NR2D [20]; Ki estimated from functionally determined IC50 at a single agonist concentration, read-out: 2D (μM) Ki**): 2.8 µM
selectivity for NR2D over NR2A (NR2D [20]; estimated Ki): ~5 fold
2A/2B (ratio of Ki**) (NR2B [21]; functional Ki ratio): 0.7**

IC50 (NR1/NR2A [7]): 123 µM
IC50 (NR1/NR2B [9]): 22 µM
IC50 (NR1/NR2B [10]; logistic fit, minimum forced to 0, read-out: 2B IC50): 22 µM
IC50 (NR1/NR2C [11]): 4 µM
IC50 (NR1/NR2C [12]; logistic fit, minimum forced to 0, read-out: 2C IC50): 4 µM
IC50 (NR1/NR2D [13]): 2 µM
SMILES: O=C(O)CCC(=O)N1N=C(c2c(-c3ccccc3)c3cc(Cl)ccc3[nH]c2=O)CC1c1ccc(Br)cc1 (centres unmarked) [compound 1179]

2A/2B (ratio of Kb) (NR2B [22]): 0.2
SMILES: C[C@H](N[C@@H](c1cccc2[nH]c(=O)c(=O)[nH]c12)P(=O)(O)O)c1ccc(Br)cc1 [NVP-AAM07]
Kb (NR2A [17]): 15.2 µM
selectivity for NR2A over NR2B (NR2A [17]; Schild analysis (Kb)): 5 fold
Kb (NR2B [18]): 78 µM
